Patent US11103582B2, “Method to achieve extended expression of DNA infused into liver” (IMMUSOFT CORPORATION, priority 2012, dated 2021)

Test system: Kupffer cells
Details: Dog #17: dexamethasone 1 mg/kg days −1, 0, 2, 4 then twice weekly + cyclophosphamide 10 mg/kg day 0 then weekly; no GdCl3; pKT2/CLP-cSEAP//PGK-SB100x into LHV
Experimental: Infusions of pKT2/clp-cSEAP//PGK-SB100x (FIG. 2) into the left hepatic vein were carried out as described in the text, collecting plasma samples before, during and after the infusion procedure and assaying for heat stable alkaline phosphatase activity.

| SMILES | Time after which cSEAP expression was extinguished |
| --- | --- |
| C[C@@H]1C[C@H]2[C@@H]3CCC4=CC(=O)C=C[C@]4(C)[C@@]3(F)[C@@H](O)C[C@]2(C)[C@@]1(O)C(=O)CO [Dexamethasone] | about 4 weeks |
| O=P1(N(CCCl)CCCl)NCCCO1 (centres unmarked) [Cyclophosphamide] | about 4 weeks |
